Results published in US11077159B2, “Compositions from halophyte plants and methods of use thereof” (KHALIFA UNIVERSITY OF SCIENCE AND TECHNOLOGY, priority 2017, dated 2021).
Values joined by “and” are separate entries in the source; they are usually repeats but may differ in a detail not shown here. Equal values may be shown once.

Experiments:
[1] = tested on: matrix metalloproteinase-1 (MMP-1) release; assay: MMP-1 release by aged fibroblasts (ELISA), anti-aging; format: cell-based, human; conditions: 10^−7M
Excerpt: […] The matrix metalloproteinase-1 (MMP-1) assay using a specific ELISA kit was used to evaluate anti-aging properties. The migration/proliferation of NHEK using kinetic image analysis of the wound recovery was used to evaluate cell renewal properties. The IL-8 release on NHEK stimulated by PMA using a specific ELISA kit was used to evaluate anti-inflammatory properties.

[2] = DPPH free radical scavenging (antioxidant) assay; format: biochemical; conditions: positive control, 0.3 mg/mL; ± standard error
Description: Two controls were used in the DPPH assay; a negative control containing all reagents except for the test extract, and a positive control using a final concentration of 0.33 mg/mL L-ascorbic acid as antioxidant instead of test extract. Radical scavenging activity was calculated as follows: Scavenging activity (%)=[(Acontrol−Atest)/[…]]*100 Where Acontrol is the negative control (without test extract), and Atest is the absorbance with the botanical extract. All analysis were carried out in triplicate.

[3] = tested on: Hyaluronic acid; assay: Hyaluronic acid synthesis; format: cell-based; conditions: 10^−7M
[4] = tested on: IL-8 release of NHEK; assay: IL-8 release of NHEK stimulated by PMA (ELISA), anti-inflammatory; format: cell-based, human; conditions: 10^−9M
Excerpt: The matrix metalloproteinase-1 (MMP-1) assay using a specific ELISA kit was used to evaluate anti-aging properties. The migration/proliferation of NHEK using kinetic image analysis of the wound recovery was used to evaluate cell renewal properties. The IL-8 release on NHEK stimulated by PMA using a specific ELISA kit was used to evaluate anti-inflammatory properties.

[5] = Scavenging of reactive oxygen species; conditions: control reference, concentration not given

C[C@@H]1C[C@H]2[C@@H]3CCC4=CC(=O)C=C[C@]4(C)[C@@]3(F)[C@@H](O)C[C@]2(C)[C@@]1(O)C(=O)CO [Dexamethasone]
MMP-1 % Control (P17-F) [1]: 58% | inhibition at 0.1 µM ([1]; Homo sapiens, Fibroblast): 42% | MMP-1 (ng/ml) dilution factor adjusted ([1]; P17-F aged fibroblasts, single replicate): 8.7 ng/mL and 8.2 ng/mL and 8.5 ng/mL | MMP-1 Mean ([1]; P17-F): 8.5 ng/mL

O=C1O[C@H]([C@@H](O)CO)C(O)=C1O [L-ascorbic acid]
DPPH scavenging activity [2]: 95.79±0.17%

CC1=C(/C=C/C(C)=C/C=C/C(C)=C/C(=O)O)C(C)(C)CCC1 [Retinoic acid]
Hyaluronic acid % Control [3]: 241% | Hyaluronic acid % Stimulation [3]: 141% | Hyaluronic acid Mean [3]: 655.7 ng/mL | Hyaluronic acid (ng/ml) dilution factor adjusted ([3]; single replicate): 677.2 ng/mL and 632.1 ng/mL and 657.9 ng/mL

CN[C@@H]1C[C@H]2O[C@@](C)([C@@H]1OC)n1c3ccccc3c3c4c(c5c6ccccc6n2c5c31)C(=O)NC4 [Staurosporine]
IL-8 % Stimulated control [4]: 54% | IL-8 Mean ([4]; PMA 0.1 μg/ml): 1685 pg/mL | IL-8 (pg/ml) dilution factor adjusted ([4]; PMA 0.1 μg/ml, non-diluted sample, single replicate): 1579 pg/mL and 1809 pg/mL and 1668 pg/mL

Vitamin-E
ROS scavenged [5]: 92%
